Assays:
[1] = tested on: spinal cord injury (SCI) model mice; assay: Evaluation of hindlimb motor function based on BMS and TMS; format: in vivo; conditions: suspension in sesame oil, oral once a day, 0.1 μmol/kg·day, 14 days, vs sesame oil alone, FIGS. 4A and 4B
Experimental: Contusion injury was induced in 8-week-old female ddY mice (SLC) by the following procedure to give spinal cord injury (SCI) model mice. The ddY mice were maintained with free access to food and water in a controlled environment (22±2° C., 50±5% humidity, 12-h light/dark cycle starting at 7:00 am) Contusion injury was induced by exposing the lumbar vertebrae of each mouse in accordance with a conventional procedure, then placing the mouse in a stereotaxic apparatus (Narishige), and dropping a 6.5-g weight onto the first lumbar vertebrae (L1) from a height of 2 cm once. The mouse was then subjected to surgical procedures such as suture in a conventional manner. One hour after the induction of the contusion injury, the mice were randomly selected and divided into test groups and were subjected to the administration test described later in Example 10 and Comparative Example 5.
The locomotion behavior in the open field was evaluated using the Basso Mouse Scale (BMS) (see, for example, Engesser-Cesar C, Anderson A J, Basso D M et al., (2005), Voluntary wheel running improves recovery from a moderate spinal cord injury, J Neurotrauma 22: 157-171), which was a general standard for the evaluation of the hindlimb motor function of spinal cord injury model mice, and a 0-30-point Toyama Mouse Scale (TMS), which was a modified BMS established by the inventors for better test accuracy. […]

normal mice (ddY) [2] = assay: Object location memory test in normal mice (Reference Test 2); format: in vivo; conditions: 10 μmol/kg·day, 5 days, ddY male 6 weeks, interval 48 hours
Experimental: ddY Mice were obtained from Japan SLC (Hamamatsu, Japan) In the Examples below, 6-week-old male ddY mice were used as normal mice. All mice were housed with free access to food and water and were kept in a controlled environment at 22±2° C., 50±5% humidity, and 12-h light/dark cycle starting at 7:00 am.
Testing was carried out in a dimly illuminated room (about 100 lx). An appropriate time interval between a training session and a test session was set based on the results of a preliminary test using another group of mice. The object location memory test utilizes animals' habit of showing interest in a novel object. The two opposite walls of a four-walled open-field box for the test had wall coverings with a distinct pattern. […] In the test session, one of the objects was moved to a different location, and the mice were allowed to explore freely for 10 minutes. The increase of the number of times a mouse preferentially explored the identical but relocated object was used as an index of the location memory. That is, the test session determines whether a mouse remembers the previous exposure to an object in the training session. In the Examples below, the ratio (%) of the number of times a mouse explored the object after relocation to the total exploration time was calculated as a preference index. […]

normal mice (ddY) [3] = assay: Object recognition memory test in normal mice; format: in vivo; conditions: Example 12: suspension in sesame oil, oral, 0.1 μmol/kg·day, 4 days; ddY male and female 9 weeks; interval 48 hours; FIG. 10
Experimental: […] All mice were housed with free access to food and water and were kept in a controlled environment at 22±2° C., 50±5% humidity, and 12-h light/dark cycle starting at 7:00 am.
The next day of the measurement of spontaneous motor activity, an object recognition memory test was performed as described in Joyashiki, E. et al., Int J Neurosci, 121, 181-190, 2011 and Tohda, C. et al., Int J Neurosci, 121, 641-648, 2011, reported by the inventors and others. Testing was carried out in a dimly illuminated room (about 100 lx). An appropriate time interval between a training session and a test session was set based on the results of a preliminary test using another group of mice. The object recognition memory test utilizes animals' habit of showing interest in a novel object. The inner walls of the open-field box for the test had no marks. In the training session, two identical objects were placed in the field, and mice were allowed to explore freely for 10 minutes. In the test session, the location of the objects was not changed, but one of the objects was replaced with a novel object, and the mice were allowed to explore freely for 10 minutes. […] In the Examples below, the ratio (%) of the number of times a mouse explored the novel object to the total exploration time was calculated as a preference index. […]

normal or AD model mice = conditions: intraperitoneal administration; cited from earlier work

| Structure (SMILES) | hindlimb motor function (BMS and TMS scores) [1] | memory enhancing effect, object location memory test (normal mice (ddY) [2]; Reference Example 1: dissolved in aqueous solvent (ethanol/5% glucose), oral, FIG. 6A) | memory enhancing effect, object location memory test (normal mice (ddY) [2]; Reference Example 2: dissolved in aqueous solvent, intraperitoneal, FIG. 6B) | object recognition memory (normal mice (ddY) [3]) | memory (normal or AD model mice) |
| --- | --- | --- | --- | --- | --- |
| C[C@@H]1CC[C@@]2(OC1)O[C@H]1C[C@H]3[C@@H]4CC=C5C[C@@H](F)CC[C@]5(C)[C@H]4CC[C@]3(C)[C@H]1[C@@H]2C [Dios-F, (3β,25R)-3-fluorospirost-5-ene] | significantly improved |  |  |  |  |
| C[C@@H]1CC[C@@]2(OC1)O[C@H]1C[C@H]3[C@@H]4CC=C5C[C@@H](O)CC[C@]5(C)[C@H]4CC[C@]3(C)[C@H]1[C@@H]2C [diosgenin, Diosgenin] |  | no memory enhancing effect | a significant memory enhancing effect | a significant enhancement of the object recognition memory | enhanced the memory |

From patent publication US20170129915A1, “THERAPEUTIC AGENT FOR DISEASES ASSOCIATED WITH NERVE AXON DYSFUNCTION, INCLUDING THERAPEUTIC AGENT FOR ALZHEIMER'S DISEASE” (Resilio Company Limited, priority 2014, published 2017)
